Results: US20210318292A1, “System and Method to Detect Small Molecules” (Sensorium Bio, Inc., priority 2020, published 2021)

How the values were obtained:
[1] = system: mOR256; test: Luminescent assay (cAMP-responsive luciferase reporter); type: cell-based; conditions: FIG. 6B; luciferase reporter read 5.5 hours after stimulation
[2] = molecular target: T1, OR2W1 (Homo sapiens, UniProt Q9Y3N9); conditions: cited from earlier work
T1 sequence (Q9Y3N9 1-320): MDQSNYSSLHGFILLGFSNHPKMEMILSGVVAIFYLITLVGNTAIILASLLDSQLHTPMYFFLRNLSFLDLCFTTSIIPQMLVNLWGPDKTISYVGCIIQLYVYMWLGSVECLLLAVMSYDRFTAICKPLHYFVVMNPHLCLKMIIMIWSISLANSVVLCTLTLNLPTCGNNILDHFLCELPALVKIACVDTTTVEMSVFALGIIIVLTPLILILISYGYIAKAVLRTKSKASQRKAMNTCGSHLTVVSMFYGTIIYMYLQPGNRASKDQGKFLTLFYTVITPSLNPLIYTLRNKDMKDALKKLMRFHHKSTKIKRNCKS

[3] = molecular target: T2, OR1A1 (Homo sapiens, UniProt Q9P1Q5); conditions: cited from earlier work
T2 sequence (Q9P1Q5 1-309): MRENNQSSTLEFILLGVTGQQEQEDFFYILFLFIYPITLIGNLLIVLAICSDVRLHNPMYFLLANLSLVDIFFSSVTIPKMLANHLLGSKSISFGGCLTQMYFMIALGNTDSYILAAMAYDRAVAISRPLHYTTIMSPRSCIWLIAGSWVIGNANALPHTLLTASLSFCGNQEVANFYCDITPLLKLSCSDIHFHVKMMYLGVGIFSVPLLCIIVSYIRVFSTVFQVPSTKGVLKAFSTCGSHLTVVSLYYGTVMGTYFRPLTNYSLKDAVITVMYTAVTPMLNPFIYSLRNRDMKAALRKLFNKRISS

[4] = system: MOR203-1; conditions: cited from earlier work
[5] = system: MOR272-1; conditions: cited from earlier work
[6] = system: MOR271-1; conditions: cited from earlier work
[7] = system: exogenous ethylene benzene responsive GPCR; conditions: pure 5 μL hanging droplet on plate lid, no direct contact; transfected human embryonic kidney cells; within minutes
Procedure: Transfected human embryonic kidney cells were seeded at 60,000 cells per well in a poly-D-lysine coated 96-well plate. The exogenous ethylene benzene responsive GPCR and calcium reporter were present in the cytosol. Pure ethylene benzene was deposited as a hanging 5 μL droplet on the plate lid. Once the plate was placed over the well, there was no direct contact between the […] and the culture medium overlaid cells.

[8] = molecular target: T2, OR1A1; test: Luminescent assay (cAMP-responsive luciferase reporter); type: cell-based; conditions: FIG. 6A; luciferase reporter read 5.5 hours after stimulation
Procedure: Cells are seeded at a density of 15,000 cells per well in a solid white 96-well microplate and allowed to adhere prior to be transfected with different plasmids including but not limited to 10 ng GPCR-expressing plasmid and 10 ng cAMP-responsive luciferase reporter plasmid. The day following the transfection, the receptor-expressing cells are then stimulated with the ligands being tested. After a period to 5.5 hours following the stimulation, the cells are lysed and the luciferase reporter activity is measured following the manufacturer protocol. The amount of luciferase activity is proportional to the ligand-mediated activation level of the exogenous GPCR. FIG. 6 is the result of luminescent assay showing dose response curves of OR1A1 for propylbenzene in FIG. 6A and 1-hexanol in FIG. 6B. The cells produce light by expressing a luciferase enzyme as a reporter readout from a cAMP secondary messenger. The ligand-mediated GPCR activation leads to intracellular cAMP accumulation which triggers a luciferase activity increase which is measured.

| SMILES | binding to receptor OR2W1 [2] | binding to receptor OR1A1 [3] | binding to receptor MOR203-1 [4] | binding to receptor MOR272-1 [5] | also measured |
| --- | --- | --- | --- | --- | --- |
| CCCCCCO [1-hexanol] |  |  |  |  | detection by mOR256, luminescent assay dose response curve [1]: detection |
| CCCCCCC(C)=O [2-octanone] | bind differentially | bind differentially | bind differentially | bind differentially |  |
| CCCCC(=O)CC [3-heptanone] | bind differentially | bind differentially | bind differentially | bind differentially | binding to receptor MOR271-1 [6]: bind differentially |
| C=C.c1ccccc1 [ethylene benzene] |  |  |  |  | fluorescence of the calcium reporter after gas phase exposure [7]: measurable fluorescence increase |
| CCCc1ccccc1 [propylbenzene] |  |  |  |  | detection by OR1A1, luminescent assay dose response curve [8]: detection |
